Source: PMC9127185, “A Pyridazinone Compound for Effectively Treating Non-alcoholic Steatohepatitis by Targeting THRβ” (Frontiers in Chemistry, 2022)
“Also recorded” adds a separate entry of the source.

Columns and labels:
[1] = Stability of liver microsomes study (human); format: in vitro ADME; conditions: human liver microsomes 0.50 mg/ml, NADPH-generating system, 37°C, 0-90 min
Method: Hypersil GOLD C18 column (4.6 × 150 mm, 5 μm, Thermo). A 0.025% ammonia aqueous solution in water (solvent A) and acetonitrile (solvent B) were used as mobile phases with gradient elution. The gradient was as follows: 0.01 min, 15% B; 5 min, 20% B; 12 min, 80% B; 16 min, 80% B; 16.01 min, 15% B; 19 min, 15% B; and 19.01 min, stopped. The timing interval was 19 min, and the flow rate was set at 1 ml/min.
The incubation system was carried out in 0.05 M Tris/KCl buffer (PH = 7.4) and included the following: pyrazinone compounds dissolved with dimethyl sulfoxide (DMSO), mouse liver microsomes and human liver microsomes at 0.50 mg/ml, 1.30 mM nicotinamide adenine dinucleotide sodium phosphate (NADP), 3.30 mM glucose-6-phosphate disodium salt (G-6-P), 0.40 units/mL glucose-6-phosphate dehydrogenase (G-6-PDH), and 3.30 mM magnesium chloride. […] After preincubation for 3 min in an 850-rpm blender (37°C), liver microsomes were added to initiate the incubation reaction (37°C). The incubation time was 0, 30, 60, and 90 min. After incubation, an equal volume of cold acetonitrile was added to stop the reaction, and an internal standard (0.05 mg/ml acetaminophen solution) was added. The samples were centrifuged at 10,000 rpm for 10 min to precipitate proteins ([Day et al., 2017]; [Manne et al., 2018]), and the 10 µL of the supernatant was taken for HPLC analysis.

[2] = Tissue distribution study after oral administration; format: in vivo, C57BL/6J mice; conditions: for Time of highest tissue level: oral
Method: The frozen mice plasma samples and tissue homogenates were thawed at room temperature, vortexed for 1 min, then taken out in 10-μl aliquots in a 1.50-ml centrifuge tube, and this was then mixed with 1 μl of standard solution and 50 μl of internal standard (IS) solution, which was then dissolved and diluted with acetonitrile. Subsequently, it was vortexed for 3 min and at 14,000 rpm centrifugation for 5 min. The adopted 1 μl of the supernatant was used for sample injection analysis.
A total of 24 male C57/BL6J mice were divided into 4 groups at random, with 6 mice in a group for tissue distribution at 0.25, 1, 6, and 24 h. They were given YWS01125 after oral administration of 20 mg/kg, and then sacrificed at 0.25, 1, 6, and 24 h. Tissues from the heart, liver, spleen, lungs, kidneys, stomach, small intestine, colon, fat, muscle, testes, and brain were taken and rinsed with saline solution to remove the blood and connective tissues ([Geng et al., 2015]; [He et al., 2017]; [Jiang et al., 2017]), then put on the filter paper and weighed, quickly. Each tissue sample was homogenized by using five times of the tissue weight saline (w/v). All homogenates were stored at−80 °C until analysis.
The tissue distributions of YWS01125 were investigated in C57BL/6J mice at 0.25, 1, 6, and 24 h after oral administration. The examined organs or tissues included the heart, liver, spleen, lungs, kidneys, stomach, small intestine, colon, fat, muscle, testes, and brain. The linear ranges, correlation coefficients, weight factors, and regression equations for all analytes in the mouse plasma and tissue homogenates are shown in Table 5. The concentration of each tissue at 0.25 h is indicated as stomach > kidneys > liver > colon > small intestine > testes > heart > spleen > lungs > fat; concentration of each tissue at 1 h is small intestine > colon > liver > stomach > kidneys > lungs > heart > fat > testes; concentration of each tissue at 6 h is small intestine > colon > stomach > liver > kidneys > heart; and concentration of each tissue at 24 h is that the whole tissues were not detected (Table 6). […] The content of the compound in the stomach was much higher than that in any other organ. The highest levels were reached 0.25 h after oral administration, then decreased thereafter. For the heart, liver, kidneys, lungs, small intestine, colon, and fat, the highest level was reached 1 h after oral administration, and it reached the highest levels at 0.25 h in the spleen, stomach, and testes.

[3] = after oral administration, all time points

For N#Cc1cn(-c2cc(Cl)c(Oc3cc(C4CCC4)c(=O)[nH]n3)c(Cl)c2)c(=O)[nH]c1=O [YWS01125, 1-(3,5-dichloro-4-((5-cyclobutyl-6-oxo-1,6-dihydropyridazin-3-yl)oxy)phenyl)-2,4-dioxo-1,2,3,4-tetrahydropyrimidine-5-carbonitrile], the “Metabolic stability / metabolite formation in liver microsomes” value [1] was “no metabolites; also recorded: stable”, the “Concentration in the brain” value [2, 3] was “not detected” and the “Concentration in the muscle” value [2, 3] was “not detected”. The “Time of highest tissue level” value ([2]; heart, liver, kidneys, lungs, small intestine, colon, fat) was 1 h, the Colon tissue concentration ([2]; oral 20 mg/kg, 15 min) was 46.70 ± 2.27 and the Fat tissue concentration ([2]; oral 20 mg/kg, 15 min) was 9.37 ± 0.88. For the same molecule, the Heart tissue concentration ([2]; oral 20 mg/kg, 15 min) was 7.00 ± 1.05, the Kidneys tissue concentration ([2]; oral 20 mg/kg, 15 min) was 129.83 ± 18.31 and the Liver tissue concentration ([2]; oral 20 mg/kg, 15 min) was 69.93 ± 11.25. The Lungs tissue concentration ([2]; oral 20 mg/kg, 15 min) was 5.51 ± 1.22, the “Small intestine tissue concentration” value ([2]; oral 20 mg/kg, 15 min) was 31.30 ± 6.38 and the Spleen tissue concentration ([2]; oral 20 mg/kg, 15 min) was 6.26 ± 0.60. It also gave a Stomach tissue concentration ([2]; oral 20 mg/kg, 15 min) of 378.67 ± 36.89, a Testes tissue concentration ([2]; oral 20 mg/kg, 15 min) of 15.37 ± 2.15 and a Colon tissue concentration ([2]; oral 20 mg/kg, 1 h) of 357.67 ± 35.31. For the same molecule, the Fat tissue concentration ([2]; oral 20 mg/kg, 1 h) was 8.69 ± 1.45, the Heart tissue concentration ([2]; oral 20 mg/kg, 1 h) was 14.41 ± 5.97 and the Kidneys tissue concentration ([2]; oral 20 mg/kg, 1 h) was 230.50 ± 15.53. For the same molecule, the Liver tissue concentration ([2]; oral 20 mg/kg, 1 h) was 283.67 ± 40.72, the Lungs tissue concentration ([2]; oral 20 mg/kg, 1 h) was 60.76 ± 4.97 and the “Small intestine tissue concentration” value ([2]; oral 20 mg/kg, 1 h) was 373.00 ± 33.88. The Stomach tissue concentration ([2]; oral 20 mg/kg, 1 h) was 247.17 ± 24.96, the Testes tissue concentration ([2]; oral 20 mg/kg, 1 h) was 6.08 ± 4.70 and the Colon tissue concentration ([2]; oral 20 mg/kg, 6 h) was 60.23 ± 3.87. It also gave a Heart tissue concentration ([2]; oral 20 mg/kg, 6 h) of 4.01 ± 1.27, a Kidneys tissue concentration ([2]; oral 20 mg/kg, 6 h) of 12.73 ± 1.65 and a Liver tissue concentration ([2]; oral 20 mg/kg, 6 h) of 16.63 ± 1.72. For the same molecule, the “Small intestine tissue concentration” value ([2]; oral 20 mg/kg, 6 h) was 61.03 ± 4.06, the Stomach tissue concentration ([2]; oral 20 mg/kg, 6 h) was 54.49 ± 10.20 and the “Time of highest tissue level” value ([2]; spleen, stomach, testes) was 0.25 h.
